Data on two molecules can be found in patent US9526680B2, “Method for searching for malodor control agent, malodor control agent, and malodor control method” (Kao Corporation, priority 2010, dated 2016).

In one assay the target is T1, OR10A6 (Homo sapiens, UniProt Q8NH74).
T1 construct: expressed in transfected cells; host or cells: HEK293
T1 sequence (Q8NH74 1-314): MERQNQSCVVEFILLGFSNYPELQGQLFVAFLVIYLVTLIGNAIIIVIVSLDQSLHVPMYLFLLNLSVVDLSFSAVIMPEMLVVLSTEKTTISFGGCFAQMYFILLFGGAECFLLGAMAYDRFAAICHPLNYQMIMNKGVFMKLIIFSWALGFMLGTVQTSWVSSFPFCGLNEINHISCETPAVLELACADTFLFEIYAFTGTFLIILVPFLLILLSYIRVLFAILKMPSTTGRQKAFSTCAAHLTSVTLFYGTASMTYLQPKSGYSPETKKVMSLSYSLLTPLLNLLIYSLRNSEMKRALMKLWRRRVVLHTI
Nature of the assay: Luciferase reporter gene assay, OR10A6 expressed in HEK293 cells. Format: cell-based. To be noted: response to hexanoic acid; test substance added together with hexanoic acid; HEK293. As to the method: (§1) Cloning of human olfactory receptors was performed based on the sequence information registered in GenBank, through PCR with human genomic DNA female (G1521: Promega) as a template. Each of the genes amplified through PCR was inserted into a pENTR vector (Invitrogen) according to an instruction manual. Then, the gene-inserted vector was digested with NotI and AscI, and the obtained fragments were inserted into NotI and AscI sites located downstream of the Flag-Rho tag sequence in the pME18S vector.
(§2) Each of the 350 types of human olfactory receptors was expressed in HEK293 cells. A reaction solution having a composition shown in Table 2 was prepared on a clean bench, and left to stand for 15 minutes. The solution was dispensed to each well of a 96-well plate (BD). Subsequently, […] cells (100 μL, 3×10^5 cells/cm^2) were seeded in each well and cultured for 24 hours in an incubator at 37° C. and under 5% CO2 conditions.
(§3) The olfactory receptor expressed in HEK293 cell was conjugated with cell-intrinsic Gas to activate adenylate cyclase, and thereby the level of intracellular cAMP was increased. For the measurement of the response to odor in this study, the luciferase reporter gene assay was used, in which an increase in the amount of intracellular cAMP was monitored by using the emission value originating from firefly luciferase gene (fluc2P-CRE-hygro) as an indicator. Furthermore, a gene product obtained by fusing renilla luciferase gene in the downstream of CMV promoter (hRluc-CMV) was simultaneously introduced, and this was used as an internal standard for correcting an error in the transgenesis efficiency or the number of cells. The medium was removed from the culture prepared in the above-described section 3) by using a Pipetman, and 75 μl of a solution containing an odor substance (1 mM hexanoic acid or 300 μM nonanoic acid) prepared in CD293 medium (Invitrogen) was added thereto. The cells were cultured for 4 hours in a CO2 incubator, and the luciferase gene was sufficiently expressed in the cells. For the measurement of luciferase activity, the measurement was carried out by using a Dual-Glo™ luciferase assay system (Promega) according to the operation manual of the product. A value calculated by dividing the emission value, derived from a firefly luciferase induced by the stimulation with an odor substance, by the emission value in cells that were not-stimulated with an odor substance, was designated as a fold increase, and used as an index of response intensity.
(§4) OR2W1, OR10A6, OR51E1, OR51I2, and OR51L1 were respectively expressed in HEK293 cells by the same method as that used in Example 1, and a luciferase assay was carried out. In the luciferase assay, hexanoic acid was used as the odorous substance, and test substances were added together with hexanoic acid. The response of the olfactory receptors to hexanoic acid was measured, and a decrease in the receptor response to the addition of test substances was evaluated.
(§5) The inhibition ratios of the receptor response to test substances were calculated as follows. The emission value (Y) obtained from the cells in which the same receptors were introduced but no odor stimulation was conducted, was subtracted from the emission value derived from firefly luciferase (X) induced by odor stimulation with hexanoic acid alone. Similarly, the emission value (Y) obtained from the cells in which no odor stimulation was conducted, was subtracted from the emission value (Z) caused by stimulation with a mixture of hexanoic acid and a test substance. By the following calculation formula, the inhibitory activity of the test substance to receptor response was calculated based on the increment of the emission value (X−Y) caused by stimulation of hexanoic acid alone. Multiple independent experiments were performed in duplicate, and the average of each experiment was obtained. Inhibition ratio (%)={1−(Z−Y)/(X−Y)}×100

A further assay addresses T2, OR51I2 (Homo sapiens, UniProt Q9H344).
T2 construct: expressed in transfected cells; host or cells: HEK293
T2 sequence (Q9H344 1-312): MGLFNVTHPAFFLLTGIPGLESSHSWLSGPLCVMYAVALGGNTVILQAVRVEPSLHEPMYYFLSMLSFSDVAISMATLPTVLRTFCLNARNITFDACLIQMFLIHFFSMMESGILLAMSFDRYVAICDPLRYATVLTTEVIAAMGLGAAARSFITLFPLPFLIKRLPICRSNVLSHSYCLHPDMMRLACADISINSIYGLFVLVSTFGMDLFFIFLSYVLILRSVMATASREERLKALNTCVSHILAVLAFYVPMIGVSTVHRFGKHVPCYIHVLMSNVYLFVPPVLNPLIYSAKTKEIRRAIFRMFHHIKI
Kind of assay: Luciferase reporter gene assay, OR51I2 expressed in HEK293 cells. Format: cell-based. As to the method: as §1, §2, §3, §4
as §5, with “(%)={1−(Z−Y)/(X−Y)}×100 […]” for “(%)={1−(Z−Y)/(X−Y)}×100”

Consider “2,4,6-trimethyl-3-cyclohexene-1-carboxyaldehyde, 3,5,6-trimethyl-3-cyclohexene-1-carboxyaldehyde [Isocyclocitral]”, for which the “Inhibition ratio of OR10A6 response” value on OR10A6 was 1 (Inhibition ratio: 50% or higher). Take `CC(C)c1cccc(C(C)CC=O)c1` (stereo not drawn) [Florhydral, 3-(3-isopropylphenyl)-butyraldehyde]: on OR51I2 (1 mM hexanoic acid, test substance 3, 10, 30, 100, 300 μM (FIG. 4)), the “Inhibition of OR51I2 response to hexanoic acid (in words)” value was “in a concentration-dependent manner”. For the same molecule, at OR51I2 (response to hexanoic acid, test substance added together with hexanoic acid, HEK293), the “Inhibition ratio of OR51I2 response” value is given as 1 (Inhibition ratio: 50% or higher).
